In EP4692114A1, “CALCITONIN ANALOGUE, AND DERIVATIVE THEREOF AND USE THEREOF” (Hangzhou Sciwind Biosciences Co., Ltd., priority 2023, dated 2024):
pEC50: −log10 of the molar value. *1 amine or outer side, *2 acyl side, *3 side chain or, on linkers, in order; H or OH if unused. Where a SMILES comes first, the peptide text is derived from it. The star is where a group is joined. C20 diacid = O=C(O)CCCCCCCCCCCCCCCCCCC(=O)*; C18 diacid = O=C(O)CCCCCCCCCCCCCCCCC(=O)*; γGlu = O=C(O)[C@H](CCC(=O)[*:2])N[*:1]

Experiments:
[1] = Heat accelerated stability assay under a neutral condition; assay type: physicochemical; conditions: pH about 7.4, 40°C; for Changes in characteristics or properties, 0d / Changes in characteristics or properties, 7d: 1 mg/mL, phosphate; for Concentration change (7d-0d)/%: Day 7 vs Day 0, reversed phase chromatography; for Purity Change% (7d-0d) / Purity Change% (26d-0d): purity from reversed phase chromatography-214 nm; for Purity Change% (7d-0d): Day 7 vs Day 0; for Purity Change% (26d-0d): Day 26 vs Day 0
Method: The lyophilized powder (1 mg/mL) of calcitonin analogues or derivatives prepared in accordance with the method of Example 1 were mixed with sodium dihydrogen phosphate (1.42 mg/mL) and dissolved in ultrapure water in the indicated mass-volume ratios. After adjusting pH to about 7.4 with hydrochloric acid/sodium hydroxide, the solution was filtered into a sterilized vial in a clean bench using a 0.22 µm sterile filter. The vial was then capped and placed into the stability test chamber at 40°C. Detections were made on Days 7 (7d) and 26 (26d), and during the assay, changes in the characteristics and properties of the polypeptides were observed and recorded. The sample was then centrifuged for 3 min at 10000 rpm at 4°C, and the supernatant was transferred to a liquid phase sample vial for detecting the concentration and purity of the polypeptides using liquid phase chromatography described as below, wherein the concentration of the polypeptide = peak area/injection volume/extinction coefficient/60×flow rate, and the purity of the polypeptide = target peak area/total peak area× 100%.
Conditions of the reversed phase chromatography Flow rate: 1.0 ml/min; Autosampler temperature: 15°C; Column temperature: 25°C; Detection wavelengths: 280 nm and 214 nm; Mobile phase A: 100% H2O+0.05% TFA; Mobile phase B: 100% ACN; and Gradient of elution listed in Table 4: Table 4. Listing of the gradient of elution in the liquid phase chromatography
Results were shown below in Tables 5, 6, and 7. A difference of more than 5% in content as compared with the initial value was typically assumed (for example, as prescribed by the Chinese Pharmacopeia (2020 Edition)) to be a significant change. Within a reasonable margin of error, a decrease of less than 1% from the initial value to the detected content is denoted as "no change" below. Table 5. Changes in characteristics or properties in the heat accelerated stability assay

human amylin receptors = biological target: T1, human amylin receptors (Homo sapiens, UniProt O60896+P30988); experiment: Luciferase assay of amylin (amylin receptor/CRE-luc cell line); assay type: cell-based; conditions: stably transfected amylin receptor/CRE-luc CHO cells (CHO-K1/Gal5/AMY3), 24 hours incubation, luciferase readout;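 further: agonist potency from luminescence of cAMP response element-driven luciferase, EC50 derived from a standard curve of signal versus compound concentration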
T1 sequence (P30988 25-474): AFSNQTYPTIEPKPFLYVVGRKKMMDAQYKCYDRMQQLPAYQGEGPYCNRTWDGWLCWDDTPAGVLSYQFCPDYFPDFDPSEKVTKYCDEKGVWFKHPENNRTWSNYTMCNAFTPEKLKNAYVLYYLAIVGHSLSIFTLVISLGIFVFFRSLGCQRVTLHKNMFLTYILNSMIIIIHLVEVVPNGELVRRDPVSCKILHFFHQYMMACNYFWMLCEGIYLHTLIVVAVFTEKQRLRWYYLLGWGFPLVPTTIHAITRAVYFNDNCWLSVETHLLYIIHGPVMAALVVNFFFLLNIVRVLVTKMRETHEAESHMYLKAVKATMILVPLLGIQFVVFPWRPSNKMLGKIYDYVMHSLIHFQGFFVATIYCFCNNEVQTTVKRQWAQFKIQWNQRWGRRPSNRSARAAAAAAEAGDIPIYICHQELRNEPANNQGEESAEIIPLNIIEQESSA
T1 sequence (O60896 24-148 partner): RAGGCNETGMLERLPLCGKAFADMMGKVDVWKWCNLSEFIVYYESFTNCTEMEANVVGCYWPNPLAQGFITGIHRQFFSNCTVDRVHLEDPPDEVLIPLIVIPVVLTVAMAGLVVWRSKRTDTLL
Text: The objective of this assay is to test the activity or potency of calcitonin analogues or derivatives on human amylin receptors in vitro using a luciferase assay.
Using the standard protocol, CHO-K1/Gal5/AMY3 cells (purchased from GenScript, with the calcitonin receptor and the receptor activity modifying peptide (RAMP) constructed already) were transfected with a plasmid containing a luciferase expression cassette driven by multiple copies of cAMP response elements (CREs). The cells were cultured in an F12 medium containing 200 ug/mL Zeocin, 2 ug/mL puromycin, 100 ug/mL hygromycin, and 400 ug/mL G418 to afford a stably transfected amylin receptor/CRE-luc cell line.
To each well of a white 96-well plate was added 50 µL of the tested sample solution at a respective concentration.
The stably transfected amylin receptor/CRE-luc CHO cells were resuspended in the growth medium at a certain density, and 50 µL of the cell suspension was added at a density of about 20000 cells per well to the white 96-well plate containing the tested sample solution. After incubation of 24 hours at 37°C and 5% CO2, 100 µL of a Luciferase substrate was added to each well, incubated for 3 minutes, and finally was tested for luminescence on SpectraMax L (Molecular Devices) with the software SoftMax Pro 7.0.3 GxP. A standard curve was plotted using the fluorescent intensities for calculation of EC50.

CC(C)C[C@H](NC(=O)[C@H](CCCNC(=N)N)NC(=O)CNC(=O)[C@H](CC(C)C)NC(=O)[C@@H](NC(=O)[C@H](C)NC(=O)[C@@H](NC(=O)[C@H](CO)NC(=O)[C@H](CC(C)C)NC(=O)[C@H](CCC(N)=O)NC(=O)[C@H](CO)NC(=O)[C@H](C)NC(=O)[C@H](CC(=O)O)NC(=O)CCCCCCCCCCCCCCCCC(=O)O)[C@@H](C)O)C(C)C)C(=O)N[C@@H](CO)C(=O)N[C@@H](CC(=O)O)C(=O)N[C@@H](CCC(=O)O)C(=O)N[C@@H](CC(C)C)C(=O)N[C@@H](Cc1c[nH]cn1)C(=O)N[C@@H](CCCNC(=N)N)C(=O)N[C@@H](CC(C)C)C(=O)N[C@@H](CCC(N)=O)C(=O)N[C@@H](CC(=O)O)C(=O)N[C@@H](Cc1ccc(O)cc1)C(=O)N1CCC[C@H]1C(=O)N[C@@H](CCCNC(=N)N)C(=O)N[C@H](C(=O)N[C@@H](CC(=O)O)C(=O)N[C@H](C(=O)NCC(=O)N[C@@H](CO)C(=O)NCC(=O)N[C@@H](CO)C(=O)N1CCC[C@H]1C(N)=O)C(C)C)[C@@H](C)O [M44] ({C18 diacid}-DASQLSTAVLGRLSDELHRLQDYPRTDVGSGSP-NH2)
Changes in characteristics or properties, 0d [1]: Clear | Changes in characteristics or properties, 7d [1]: Clear | Concentration change (7d-0d)/% [1]: -2.285% | Purity Change% (7d-0d) [1]: -1.15% | Purity Change% (26d-0d) [1]: -3.76% | pEC50 (human amylin receptors): 10.80

CC(C)C[C@H](NC(=O)[C@H](CCCNC(=N)N)NC(=O)CNC(=O)[C@H](CC(C)C)NC(=O)[C@@H](NC(=O)[C@H](C)NC(=O)[C@@H](NC(=O)[C@H](CO)NC(=O)[C@H](CC(C)C)NC(=O)[C@H](CCC(N)=O)NC(=O)[C@H](CO)NC(=O)[C@H](C)NC(=O)[C@H](CCC(=O)O)NC(=O)CCCCCCCCCCCCCCCCC(=O)O)[C@@H](C)O)C(C)C)C(=O)N[C@@H](CO)C(=O)N[C@@H](CC(=O)O)C(=O)N[C@@H](CCC(=O)O)C(=O)N[C@@H](CC(C)C)C(=O)N[C@@H](Cc1c[nH]cn1)C(=O)N[C@@H](CCCNC(=N)N)C(=O)N[C@@H](CC(C)C)C(=O)N[C@@H](CCC(N)=O)C(=O)N[C@@H](CC(=O)O)C(=O)N[C@@H](Cc1ccc(O)cc1)C(=O)N1CCC[C@H]1C(=O)N[C@@H](CCCNC(=N)N)C(=O)N[C@H](C(=O)N[C@@H](CC(=O)O)C(=O)N[C@H](C(=O)NCC(=O)N[C@@H](CO)C(=O)NCC(=O)N[C@@H](CO)C(=O)N1CCC[C@H]1C(N)=O)C(C)C)[C@@H](C)O [M42] ({C18 diacid}-EASQLSTAVLGRLSDELHRLQDYPRTDVGSGSP-NH2)
Changes in characteristics or properties, 0d [1]: Clear | Changes in characteristics or properties, 7d [1]: Clear | Concentration change (7d-0d)/% [1]: -3.344% | Purity Change% (7d-0d) [1]: No change (a decrease of less than 1% from the initial value to the detected content is denoted as "no change") | Purity Change% (26d-0d) [1]: -2.93% | pEC50 (human amylin receptors): 10.80

CC(C)C[C@H](NC(=O)CC[C@H](NC(=O)CCCCCCCCCCCCCCCCCCC(=O)O)C(=O)O)C(=O)N[C@@H](CO)C(=O)N[C@@H](CCC(N)=O)C(=O)N[C@@H](CC(C)C)C(=O)N[C@@H](CO)C(=O)N[C@H](C(=O)N[C@@H](CC(C)C)C(=O)N[C@H](C(=O)N[C@@H](CC(C)C)C(=O)NCC(=O)N[C@@H](CCCNC(=N)N)C(=O)N[C@@H](CC(C)C)C(=O)N[C@@H](CO)C(=O)N[C@@H](CCC(N)=O)C(=O)N[C@@H](CCC(=O)O)C(=O)N[C@@H](CC(C)C)C(=O)N[C@@H](Cc1c[nH]cn1)C(=O)N[C@@H](CCCNC(=N)N)C(=O)N[C@@H](CC(C)C)C(=O)N[C@@H](CCC(N)=O)C(=O)N[C@@H](CC(=O)O)C(=O)N[C@@H](Cc1ccc(O)cc1)C(=O)N1CCC[C@H]1C(=O)N[C@@H](CCCNC(=N)N)C(=O)N[C@H](C(=O)N[C@@H](CC(=O)O)C(=O)N[C@H](C(=O)NCC(=O)N[C@@H](CO)C(=O)NCC(=O)N[C@@H](CO)C(=O)N1CCC[C@H]1C(N)=O)C(C)C)[C@@H](C)O)C(C)C)[C@@H](C)O [M25] ({C20 diacid-γGlu}-LSQLSTLVLGRLSQELHRLQDYPRTDVGSGSP-NH2)
pEC50 (human amylin receptors): 10.80
